Reference: ChEMBL document CHEMBL4396970, “Benzothiazole-based compounds as potent endothelial lipase inhibitors” (Bioorg Med Chem Lett, 2019)
pIC50: −log10 of the molar value. The source made the active and inactive calls. The rule behind the calls is not given here.

Tests used:
Cytochrome P450 2C9 = Cytochrome P450 2C9 (Homo sapiens, UniProt P11712); test: Inhibition of CYP2C9 (unknown origin); assay type: ADME
Cytochrome P450 2C19 = Cytochrome P450 2C19 (Homo sapiens, UniProt P33261); test: Inhibition of CYP2C19 (unknown origin); assay type: ADME
Cytochrome P450 1A2 = biological target: T1, Cytochrome P450 1A2 (Homo sapiens, UniProt P05177); test: Inhibition of CYP1A2 (unknown origin); assay type: ADME
T1 sequence (P05177 whole entry): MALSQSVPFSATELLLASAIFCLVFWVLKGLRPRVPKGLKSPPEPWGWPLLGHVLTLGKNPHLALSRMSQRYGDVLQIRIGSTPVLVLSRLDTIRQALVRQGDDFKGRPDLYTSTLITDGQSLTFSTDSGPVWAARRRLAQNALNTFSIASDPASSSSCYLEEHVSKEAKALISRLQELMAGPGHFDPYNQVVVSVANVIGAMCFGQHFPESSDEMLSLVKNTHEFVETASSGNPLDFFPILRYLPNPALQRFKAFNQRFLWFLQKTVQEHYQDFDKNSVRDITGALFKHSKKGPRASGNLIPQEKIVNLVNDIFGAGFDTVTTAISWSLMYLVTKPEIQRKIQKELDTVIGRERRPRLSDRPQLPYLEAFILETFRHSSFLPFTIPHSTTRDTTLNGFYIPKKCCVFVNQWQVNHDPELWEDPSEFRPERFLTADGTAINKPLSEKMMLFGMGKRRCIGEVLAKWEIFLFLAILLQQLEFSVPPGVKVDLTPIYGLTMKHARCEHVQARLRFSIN

Endothelial lipase [1] = biological target: T2, Endothelial lipase (Homo sapiens, UniProt Q9Y5X9); test: Inhibition of endothelial lipase in human serum; assay type: cell-free
T2 sequence (Q9Y5X9 whole entry): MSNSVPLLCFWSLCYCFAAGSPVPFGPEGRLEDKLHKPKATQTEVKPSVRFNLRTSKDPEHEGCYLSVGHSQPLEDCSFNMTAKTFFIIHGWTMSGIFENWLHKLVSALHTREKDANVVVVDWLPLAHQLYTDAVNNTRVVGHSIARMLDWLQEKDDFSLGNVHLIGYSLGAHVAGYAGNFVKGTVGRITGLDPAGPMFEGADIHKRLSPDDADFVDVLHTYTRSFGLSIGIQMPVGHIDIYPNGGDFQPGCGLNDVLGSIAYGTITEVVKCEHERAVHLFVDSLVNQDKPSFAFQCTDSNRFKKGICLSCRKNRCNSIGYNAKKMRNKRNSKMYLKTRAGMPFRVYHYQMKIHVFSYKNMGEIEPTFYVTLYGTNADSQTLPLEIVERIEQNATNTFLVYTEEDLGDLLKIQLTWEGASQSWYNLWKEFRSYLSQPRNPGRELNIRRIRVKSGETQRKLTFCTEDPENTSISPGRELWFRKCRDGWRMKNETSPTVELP

[2] = biological target: T3, Hepatic triacylglycerol lipase (Homo sapiens, UniProt P11150); test: Inhibition of hepatic lipase (unknown origin)
T3 sequence (P11150 whole entry): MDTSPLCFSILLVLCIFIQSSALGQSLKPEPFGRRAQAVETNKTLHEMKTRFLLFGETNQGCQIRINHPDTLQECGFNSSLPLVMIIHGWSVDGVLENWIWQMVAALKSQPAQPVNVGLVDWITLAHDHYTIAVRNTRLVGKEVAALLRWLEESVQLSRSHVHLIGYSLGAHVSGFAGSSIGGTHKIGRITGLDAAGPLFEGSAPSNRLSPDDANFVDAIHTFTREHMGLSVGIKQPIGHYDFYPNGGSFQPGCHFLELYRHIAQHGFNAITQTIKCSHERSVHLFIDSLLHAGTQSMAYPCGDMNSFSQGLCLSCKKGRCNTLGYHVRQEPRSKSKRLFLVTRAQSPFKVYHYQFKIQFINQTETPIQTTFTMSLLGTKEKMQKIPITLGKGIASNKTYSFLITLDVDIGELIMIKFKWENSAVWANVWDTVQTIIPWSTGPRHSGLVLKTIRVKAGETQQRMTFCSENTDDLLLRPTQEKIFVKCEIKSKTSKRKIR

Cytochrome P450 2D6 = Cytochrome P450 2D6 (Homo sapiens, UniProt P10635); test: Inhibition of CYP2D6 (unknown origin); assay type: ADME
Cytochrome P450 3A4 = Cytochrome P450 3A4 (Homo sapiens, UniProt P08684); test: Inhibition of CYP3A4 (unknown origin); assay type: ADME
[3] = Metabolic stability in human liver microsomes assessed as parent compound remaining at 0.5 uM preincubated with compound followed by NADPH addition and measured after 10 mins; assay type: ADME, Microsome; settings: read-out: Stability
[4] = Metabolic stability in mouse liver microsomes assessed as parent compound remaining at 0.5 uM preincubated with compound followed by NADPH addition and measured after 10 mins; assay type: ADME, Microsome; settings: read-out: Stability
[5] = Permeability of compound at pH 7.4 by PAMPA; assay type: ADME; settings: read-out: permeability
[6] = Permeability of compound at pH 5.0 by PAMPA; assay type: ADME; settings: read-out: permeability
[7] = Permeability across apical to basolateral side in human Caco2 cells; assay type: ADME, cell-based; settings: Caco-2, read-out: permeability
[8] = Permeability across basolateral to apical side in human Caco2 cells; assay type: ADME, cell-based; settings: Caco-2, read-out: permeability
Endothelial lipase [9] = biological target: T2, Endothelial lipase; test: Inhibition of endothelial lipase (unknown origin)
Mus musculus [10] = test: Antiatherosclerotic in C57BL/6 mouse assessed as change in phospholipid level in plasma at 50 mg/kg, ip qd administrated for 2 days and measured 6 hrs post last dose by FPLC analysis; assay type: functional, organism-based
[11] = biological target: T4, Endothelial lipase (Homo sapiens) (UniProt Q9Y5X9); test: Reversible inhibition of endothelial lipase (unknown origin) assessed as recovery of enzyme activity measured after 24 hrs by dialysis based assay relative to control; parameters: scale not given: the % may be the effect or the level left
T4 sequence (whole entry): T2 sequence (Q9Y5X9 whole entry)

[12] = Cmax in BALB/c mouse at 10 mg/kg, po; assay type: ADME, organism-based; parameters: dose 10 mg/kg, route oral; settings: in vivo
[13] = Tmax in BALB/c mouse at 10 mg/kg, po; assay type: ADME, organism-based; settings: in vivo
[14] = AUC (0 to 24 hrs) in BALB/c mouse at 10 mg/kg, po; assay type: ADME, organism-based; parameters: time < 24 hr, dose 10 mg/kg, route oral; settings: in vivo
[15] = Half life in BALB/c mouse at 10 mg/kg, po; assay type: ADME, organism-based; settings: in vivo
[16] = Plasma concentration in BALB/c mouse at 10 mg/kg, po measured at 24 hrs post dose; assay type: ADME, organism-based
[17] = Cmax in BALB/c mouse at 50 mg/kg, ip; assay type: ADME, organism-based; parameters: dose 50 mg/kg, route intraperitoneal; settings: in vivo
[18] = Tmax in BALB/c mouse at 50 mg/kg, ip; assay type: ADME, organism-based; settings: in vivo
[19] = AUC (0 to 24 hrs) in BALB/c mouse at 50 mg/kg, ip measured up to 24 hrs; assay type: ADME, organism-based; parameters: time < 24 hr, dose 50 mg/kg, route intraperitoneal; settings: in vivo
[20] = Half life in BALB/c mouse at 50 mg/kg, ip; assay type: ADME, organism-based; settings: in vivo
[21] = Plasma concentration in BALB/c mouse at 50 mg/kg, ip measured at 24 hrs post dose; assay type: ADME, organism-based
Mus musculus [22] = test: Antiatherosclerotic in C57BL/6 mouse assessed as increase in HDL-cholesterol level in plasma at 50 mg/kg, ip qd administrated for 2 days and measured 6 hrs post last dose by FPLC analysis; assay type: functional, organism-based
[23] = Tmin in BALB/c mouse at 50 mg/kg, ip; assay type: ADME, organism-based; settings: in vivo
[24] = Ratio of Cmin in BALB/c mouse to IC50 for endothelial lipase in human serum; assay type: ADME; settings: in vivo

Chain of Cytochrome P450 2D6 (P10635 whole entry): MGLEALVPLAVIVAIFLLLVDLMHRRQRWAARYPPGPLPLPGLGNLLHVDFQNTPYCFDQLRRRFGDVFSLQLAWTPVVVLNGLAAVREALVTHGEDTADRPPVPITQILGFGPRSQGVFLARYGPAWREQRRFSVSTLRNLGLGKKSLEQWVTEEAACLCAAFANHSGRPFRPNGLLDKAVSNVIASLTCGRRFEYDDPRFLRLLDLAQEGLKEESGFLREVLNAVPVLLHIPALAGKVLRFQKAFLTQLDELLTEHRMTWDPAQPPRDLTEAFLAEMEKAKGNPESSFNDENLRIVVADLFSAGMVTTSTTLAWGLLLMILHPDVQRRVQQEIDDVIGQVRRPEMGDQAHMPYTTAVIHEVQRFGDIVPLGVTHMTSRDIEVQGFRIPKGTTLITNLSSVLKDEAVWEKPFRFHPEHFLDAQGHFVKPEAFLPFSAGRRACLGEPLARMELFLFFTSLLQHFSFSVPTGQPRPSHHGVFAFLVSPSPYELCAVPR
Chain of Cytochrome P450 3A4 (P08684 whole entry): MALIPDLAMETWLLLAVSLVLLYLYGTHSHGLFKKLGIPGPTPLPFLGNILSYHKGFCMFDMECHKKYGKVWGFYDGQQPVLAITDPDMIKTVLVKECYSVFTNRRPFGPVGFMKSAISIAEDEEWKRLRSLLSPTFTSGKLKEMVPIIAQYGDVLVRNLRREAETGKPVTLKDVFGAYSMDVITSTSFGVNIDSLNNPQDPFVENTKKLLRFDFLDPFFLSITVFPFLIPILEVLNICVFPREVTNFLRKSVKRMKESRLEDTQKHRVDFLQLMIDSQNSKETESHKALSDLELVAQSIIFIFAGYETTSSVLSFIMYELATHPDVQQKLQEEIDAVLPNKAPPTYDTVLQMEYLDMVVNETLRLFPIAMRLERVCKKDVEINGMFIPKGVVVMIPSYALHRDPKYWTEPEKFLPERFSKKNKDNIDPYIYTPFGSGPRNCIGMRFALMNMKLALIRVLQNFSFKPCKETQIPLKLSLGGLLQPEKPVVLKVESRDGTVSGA
Chain of Cytochrome P450 2C19 (P33261 whole entry): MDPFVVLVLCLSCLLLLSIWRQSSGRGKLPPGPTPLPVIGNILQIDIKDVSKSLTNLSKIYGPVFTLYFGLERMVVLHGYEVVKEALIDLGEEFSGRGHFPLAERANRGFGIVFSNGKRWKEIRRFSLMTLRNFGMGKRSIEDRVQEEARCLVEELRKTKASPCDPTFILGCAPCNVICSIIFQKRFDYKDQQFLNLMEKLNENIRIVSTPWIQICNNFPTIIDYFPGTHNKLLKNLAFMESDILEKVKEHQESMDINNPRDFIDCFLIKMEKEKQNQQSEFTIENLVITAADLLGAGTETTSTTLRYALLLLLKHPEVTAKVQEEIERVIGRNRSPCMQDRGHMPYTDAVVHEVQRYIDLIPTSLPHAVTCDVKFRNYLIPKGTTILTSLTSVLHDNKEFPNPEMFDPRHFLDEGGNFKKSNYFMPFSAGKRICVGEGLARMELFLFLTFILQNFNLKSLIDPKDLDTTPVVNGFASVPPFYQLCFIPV
Chain of Cytochrome P450 2C9 (P11712 whole entry): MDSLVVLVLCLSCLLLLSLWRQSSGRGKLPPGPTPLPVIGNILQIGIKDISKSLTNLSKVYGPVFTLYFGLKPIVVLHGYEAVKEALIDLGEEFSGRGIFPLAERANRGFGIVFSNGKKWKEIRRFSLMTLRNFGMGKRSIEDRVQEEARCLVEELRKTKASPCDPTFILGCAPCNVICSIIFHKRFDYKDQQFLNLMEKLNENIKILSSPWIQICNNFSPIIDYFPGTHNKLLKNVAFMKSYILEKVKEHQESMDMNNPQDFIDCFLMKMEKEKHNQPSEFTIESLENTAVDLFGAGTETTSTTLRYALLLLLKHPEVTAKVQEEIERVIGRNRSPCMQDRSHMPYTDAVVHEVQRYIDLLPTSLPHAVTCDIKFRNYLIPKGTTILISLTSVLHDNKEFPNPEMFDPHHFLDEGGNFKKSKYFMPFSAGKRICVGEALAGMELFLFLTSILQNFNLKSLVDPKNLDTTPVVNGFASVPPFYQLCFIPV

| Structure (SMILES) | pIC50 (Cytochrome P450 2C9) | pIC50 (Cytochrome P450 2C19) | pIC50 (Cytochrome P450 1A2) | pIC50 (Endothelial lipase [1]) | pIC50 [2] | pIC50 (Cytochrome P450 2D6) | pIC50 (Cytochrome P450 3A4) | remaining at 10 min, 0.5 µM [3] [%] | remaining at 10 min, 0.5 µM [4] [%] | Papp [5] [×10⁻⁶ cm/s] | Papp [6] [×10⁻⁶ cm/s] | Papp A→B [7] [×10⁻⁶ cm/s] | Papp B→A [8] [×10⁻⁶ cm/s] | pIC50 (Endothelial lipase [9]) | further results |
| --- | --- | --- | --- | --- | --- | --- | --- | --- | --- | --- | --- | --- | --- | --- | --- |
| CN1CCN(C(=O)c2ccc(-c3ccc4nc(C(C#N)C(=O)NCC(=O)NC5CC5)sc4c3)cc2)CC1 (racemic) | < 4.74 | < 4.74 | < 4.74 | 7.52 | 5.74 | < 4.74 | < 4.74 | 78 | 91 | 0.3 | 0.2 | < 1.5 | 3 |  |  |
| N#CC(C(=O)NCC(=O)NC1COC1)c1nc2ccc(-c3ccc(F)nc3)cc2s1 (racemic) | < 4.74 | < 4.74 | < 4.74 | 7.30 | 6.72 | < 4.74 | < 4.74 | 87 | 87 | 0.4 | 6.5 | < 1.5 | 34.9 |  |  |
| CN(C)C(=O)c1ccc(-c2ccc3nc(C(C#N)C(=O)NCC(=O)NC4CC4)sc3c2)cc1F (racemic) |  |  |  | 7.15 | 5.96 |  |  |  |  |  |  |  |  |  |  |
| N#CC(C(=O)NCC(=O)NC1CC1)c1nc2ccc(-c3ccc(F)nc3)cc2s1 (racemic) |  |  |  | 6.64 | 6.30 |  |  |  |  |  |  |  |  | 6.77 |  |
| N#CC(C(=O)NCC(=O)NC1CC1)c1nc2ccc(-c3ccc(NC(=O)OCc4ccccc4)cc3)cc2s1 (racemic) |  |  |  | 7.10 | 9.10 |  |  |  |  |  |  |  |  | 9.00 |  |
| N#CC(C(=O)NCC(=O)NC1CC1)c1nc2ccc(-c3ccc4c(c3)CNC4=O)cc2s1 (racemic) |  |  |  | 7.00 | 7.15 |  |  |  |  |  |  |  |  | 8.28 |  |
| CN1CCN(C(=O)c2ccc(-c3ccc4nc(C(C#N)C(=O)NCC(=O)NC5CCC5)sc4c3)cc2)CC1 (racemic) |  |  |  | 6.70 | 6.31 |  |  |  |  |  |  |  |  | 5.51 |  |
| N#CC(C(=O)NCC(=O)NC1CC1)c1nc2ccc(-c3ccc(C(=O)N4CCOCC4)cc3)cc2s1 (racemic) | < 4.74 | < 4.74 | < 4.74 | 7.30 | 6.52 | < 4.74 | < 4.74 | 98 | 100 | 0.4 | 10.4 | 1.7 | 18.4 |  |  |
| N#CC(C(=O)NCC(=O)NC1CC1)c1nc2ccc(-c3ccc4c(c3)C(=O)NC4)cc2s1 (racemic) |  |  |  | 6.89 | 6.38 |  |  |  |  |  |  |  |  |  |  |
| CN(C)C(=O)c1cccc(-c2ccc3nc(C(C#N)C(=O)NCC(=O)NC4CC4)sc3c2)c1 (racemic) | < 4.74 | < 4.74 | < 4.74 | 7.52 | 6.14 | < 4.74 | < 4.74 | 76 | 99 | 0.3 | 8.4 | < 1.5 | 7.5 |  |  |
| N#CC(C(=O)NCC(=O)NC1CC1)c1nc2ccc(-c3ccc(C(=O)N4CCC4)cc3)cc2s1 (racemic) |  |  |  | 6.77 | 6.77 |  |  |  |  |  |  |  |  |  |  |
| N#CC(C(=O)NCC(=O)N1CCCC1)c1nc2ccc(-c3ccccc3)cc2s1 (racemic) |  |  |  | 5.96 | 6.60 |  |  |  |  |  |  |  |  | 5.89 |  |
| N#CC(C(=O)NCC(=O)NC1CC1)c1nc2ccc(-c3cccc(C(=O)N4CCCCC4)c3)cc2s1 (racemic) |  |  |  | 6.85 | 7.46 |  |  |  |  |  |  |  |  |  |  |
| N#CC(C(=O)NCC(=O)NC1CC1)c1nc2ccc(-c3ccccc3)cc2s1 (racemic) | < 4.74 | < 4.74 | < 4.74 | 7.29 | 8.27 | < 4.74 | < 4.74 | 91 | 86 | 84.5 | 162 | 2 | 24.6 |  | Activity (Mus musculus [10]): inactive; Activity [11]: 88%; Cmax [12]: 6.6 µM; Tmax [13]: 0.25 h; AUC(0-t) at 24 h [14]: 18 µM·h; half-life [15]: 8.5 h; concentration at 24 h [16]: 0.14 µM; Cmax [17]: 28 µM; Tmax [18]: 7 h; AUC(0-t) at 24 h [19]: 330 µM·h; half-life [20]: 4.7 h; concentration at 24 h [21]: 1.66 µM; Activity (Mus musculus [22]): inactive; Tmin [23]: 23.8 h; Ratio [24]: > 30 |
